The values that follow come from patent US20240182407A1, “QUINOLINE COMPOUND SALT OR CRYSTAL FORM, PREPARATION METHOD THEREFOR, AND APPLICATION THEREOF” (Nanjing Zenshine Pharmaceuticals Co., Ltd., priority 2021, published 2024).

The target in one data set is T1, PI3Kγ (p110γ) (Homo sapiens, UniProt P48736).
T1 construct: purchased Invitrogen PR8641C
Kind of data set: ADP-Glo kinase inhibition, PI3Kγ. The note with it: read-out: IC50 PI3Kγ Biochemical. On the procedure:
(§1) In Example 7, the inhibitory effects of Sample 6 prepared in Example 6 above on kinases PI3Kα, PI3Kβ, PI3Kγ and PI3Kδ were tested.
(§2) The kinases used in the experiment were respectively purchased from: • PI3Kα (p110α/p85α), purchased from Invitrogen, under Cat. No. PV4788; • PI3Kβ (p110β), purchased from eurofins, under Cat. No. 14-603M; • PI3Kδ (p110δ/p85a), purchased from Invitrogen, under Cat. No. PV6452; and • PI3Kγ (p110γ), purchased from Invitrogen, under Cat. No. PR8641C. • Firstly, a 1× kinase buffer solution was prepared, which comprised: • 50 mM HEPES, pH 7.5 • 3 mM MgCl2 • 1 mM EGTA • 100 mM NaCl • 0.03% CHAPS • 2 mM DTT
On kinases PI3Kα, PI3Kβ and PI3Kγ, the final detection concentration of the compound was 10 μM. 100× concentration was prepared, i.e., 1000 μM. 90 μL of 100% DMSO was added to the second well in row A on a 96-well plate, 10 μL of a 10 mM compound solution was then added, and 3-fold serial dilution was made to obtain a total of 10 concentrations.
(§3) 50 μL of 100% DMSO was transferred to two empty wells as Max well and Min well, respectively.
50 nL of the compound was transferred into a 384-well plate using ECHO550.
Preparation of 2× kinase solution: the kinase was added to a 1× kinase buffer to prepare a 2× enzyme solution. […]
(§4) Finally, the chemiluminescence values were read from Envision 2104 Multi-label Reader and subjected to curve fitting, and IC50 was calculated.

The test system of a further data set is mouse breast cancer 4T1. Kind of data set: Mouse breast cancer 4T1 subcutaneous transplantation tumor model. It is filed as in vivo. The text has this: (§5) WT cell subcutaneous transplantation tumor model.
A further data set concerns SU-DHL-4. As to the kind of experiment: Proliferation of lymphoma cell line in vitro, SU-DHL-4. It is filed as cell-based. The note with it: Homo sapiens, read-out: absolute IC50 (AbsIC50), proliferation.
A further data set deals with T2, PI3Kδ (p110δ/p85a) (Homo sapiens, UniProt O00329).
T2 construct: purchased Invitrogen PV6452
As to the kind of experiment: ADP-Glo kinase inhibition, PI3Kδ. Conditions: read-out: IC50 PI3Kδ Biochemical. How it is done: as §1, §2
On kinase PI3Kδ, the final detection concentration of the compound was 1 μM. 100× concentration was prepared, i.e., 100 μM. 90 μL of 100% DMSO was added to the second well in row B on a 96-well plate, 10 μL of a 1000 μM compound solution was then taken from the second well in row A, and 3-fold serial dilution was made to obtain a total of 10 concentrations.
as §3
50 nL of the compound was transferred into a 384-well plate using ECHO550. […]
as §4

Data set [1] can be described thus: Crystal form stability under high humidity (XRPD). It is filed as physicochemical. The note with it: RT/92.5% RH, 11 days. An excerpt:
In addition, the stability of p-toluenesulfonate crystal form I (Sample 8) under grinding and high humidity conditions was investigated.
For example, the p-toluenesulfonate crystal form I sample was placed at RT/92.5% RH for 11 days and then measured by XRPD.

Data set [2] has as its system mouse colorectal cancer CT26. WT cell. As to the kind of experiment: Mouse colorectal cancer CT26. WT cell subcutaneous transplantation tumor model. In kind it is in vivo.
From the text: as §5

T2 sequence (O00329 whole entry): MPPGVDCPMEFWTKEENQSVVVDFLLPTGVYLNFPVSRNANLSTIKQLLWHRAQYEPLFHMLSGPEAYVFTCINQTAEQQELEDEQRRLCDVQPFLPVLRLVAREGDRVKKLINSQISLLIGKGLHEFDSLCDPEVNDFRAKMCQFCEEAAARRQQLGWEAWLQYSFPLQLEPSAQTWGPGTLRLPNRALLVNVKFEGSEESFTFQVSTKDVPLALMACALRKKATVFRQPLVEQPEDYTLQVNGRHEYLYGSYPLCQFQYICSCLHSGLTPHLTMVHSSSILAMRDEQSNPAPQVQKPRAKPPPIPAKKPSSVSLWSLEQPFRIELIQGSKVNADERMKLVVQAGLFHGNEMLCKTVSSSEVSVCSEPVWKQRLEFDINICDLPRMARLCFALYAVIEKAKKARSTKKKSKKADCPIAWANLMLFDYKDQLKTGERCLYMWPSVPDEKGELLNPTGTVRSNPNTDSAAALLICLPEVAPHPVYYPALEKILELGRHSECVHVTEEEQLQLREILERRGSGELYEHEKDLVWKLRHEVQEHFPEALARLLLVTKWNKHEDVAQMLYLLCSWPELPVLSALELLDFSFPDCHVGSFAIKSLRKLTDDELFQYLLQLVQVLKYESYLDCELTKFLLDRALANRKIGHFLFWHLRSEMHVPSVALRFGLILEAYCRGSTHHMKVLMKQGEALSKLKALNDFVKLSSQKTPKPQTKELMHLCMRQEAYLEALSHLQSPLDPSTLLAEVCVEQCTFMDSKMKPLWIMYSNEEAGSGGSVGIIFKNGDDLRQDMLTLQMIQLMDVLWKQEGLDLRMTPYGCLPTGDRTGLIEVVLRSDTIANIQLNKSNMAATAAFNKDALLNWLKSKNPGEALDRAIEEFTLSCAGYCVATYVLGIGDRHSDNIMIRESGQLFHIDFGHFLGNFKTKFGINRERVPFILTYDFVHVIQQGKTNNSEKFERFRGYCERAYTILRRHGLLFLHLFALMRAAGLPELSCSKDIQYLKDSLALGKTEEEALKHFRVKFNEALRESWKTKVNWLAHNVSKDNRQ
T2 sequence (P27986 whole entry partner): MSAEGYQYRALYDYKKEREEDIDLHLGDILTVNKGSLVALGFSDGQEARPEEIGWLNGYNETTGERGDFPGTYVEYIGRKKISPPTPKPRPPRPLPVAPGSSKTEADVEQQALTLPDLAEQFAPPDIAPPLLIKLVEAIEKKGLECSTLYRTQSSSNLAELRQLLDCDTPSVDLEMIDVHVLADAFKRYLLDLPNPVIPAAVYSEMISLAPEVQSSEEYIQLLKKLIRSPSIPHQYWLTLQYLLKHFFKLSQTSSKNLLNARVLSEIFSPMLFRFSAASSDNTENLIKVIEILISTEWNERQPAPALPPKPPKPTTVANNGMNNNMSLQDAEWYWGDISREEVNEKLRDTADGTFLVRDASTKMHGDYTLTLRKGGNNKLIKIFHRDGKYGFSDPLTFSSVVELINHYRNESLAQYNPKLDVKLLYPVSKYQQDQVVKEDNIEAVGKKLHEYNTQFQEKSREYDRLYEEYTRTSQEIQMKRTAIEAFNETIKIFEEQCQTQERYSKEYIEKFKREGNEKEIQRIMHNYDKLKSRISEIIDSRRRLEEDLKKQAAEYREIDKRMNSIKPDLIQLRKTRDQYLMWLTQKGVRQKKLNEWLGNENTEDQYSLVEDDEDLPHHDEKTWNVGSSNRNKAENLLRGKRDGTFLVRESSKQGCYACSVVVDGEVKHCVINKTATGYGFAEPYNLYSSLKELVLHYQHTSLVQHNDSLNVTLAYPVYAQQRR
T1 sequence (P48736 whole entry): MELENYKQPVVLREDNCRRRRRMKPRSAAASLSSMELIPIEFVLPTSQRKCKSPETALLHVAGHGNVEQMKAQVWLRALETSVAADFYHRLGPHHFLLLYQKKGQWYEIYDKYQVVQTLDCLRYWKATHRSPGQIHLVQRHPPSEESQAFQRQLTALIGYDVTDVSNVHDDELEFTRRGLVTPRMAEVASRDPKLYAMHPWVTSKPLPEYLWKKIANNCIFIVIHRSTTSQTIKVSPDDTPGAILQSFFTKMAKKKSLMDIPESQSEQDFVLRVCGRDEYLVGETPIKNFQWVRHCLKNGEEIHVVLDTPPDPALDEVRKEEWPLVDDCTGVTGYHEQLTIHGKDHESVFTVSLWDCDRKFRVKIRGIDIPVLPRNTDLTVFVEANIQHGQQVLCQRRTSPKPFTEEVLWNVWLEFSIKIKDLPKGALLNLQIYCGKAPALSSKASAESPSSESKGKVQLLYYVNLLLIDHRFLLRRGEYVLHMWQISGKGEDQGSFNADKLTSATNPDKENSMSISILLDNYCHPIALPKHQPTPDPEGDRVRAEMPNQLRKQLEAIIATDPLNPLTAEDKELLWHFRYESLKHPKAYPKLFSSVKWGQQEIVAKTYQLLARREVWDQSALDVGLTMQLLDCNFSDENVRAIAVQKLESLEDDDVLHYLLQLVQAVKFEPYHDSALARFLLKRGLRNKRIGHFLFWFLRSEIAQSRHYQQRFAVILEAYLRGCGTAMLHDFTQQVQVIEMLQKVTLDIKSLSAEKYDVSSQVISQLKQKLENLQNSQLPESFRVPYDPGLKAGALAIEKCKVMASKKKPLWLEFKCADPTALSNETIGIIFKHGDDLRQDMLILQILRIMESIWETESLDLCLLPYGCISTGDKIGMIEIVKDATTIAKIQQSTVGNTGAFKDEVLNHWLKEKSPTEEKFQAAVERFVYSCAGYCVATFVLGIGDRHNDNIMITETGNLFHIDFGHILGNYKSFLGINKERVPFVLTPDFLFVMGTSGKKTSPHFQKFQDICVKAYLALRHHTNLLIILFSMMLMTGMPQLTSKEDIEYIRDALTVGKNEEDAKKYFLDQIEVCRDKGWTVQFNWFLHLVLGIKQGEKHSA

`C[C@H](Nc1nc(N)nc(N)c1C#N)c1cc2ccc(F)cc2nc1-c1ccccn1` [p-toluenesulfonate of Compound A]: the values for the IC50 on PI3Kγ (p110γ), in the data set with SU-DHL-4 and at PI3Kδ (p110δ/p85a) were 4.8 nM, less than 100 nM and 0.49 nM, respectively. The “effect on tumor volume growth” value (with mouse breast cancer 4T1; in data set [2]) was “significant inhibitory effect” each time. The “crystal form after high humidity (XRPD)” value in data set [1] was “crystal form of the sample did not change”.
